The test system of one test is DU4475. Nature of the test: In vitro cell viability assay (CellTiter-Glo, ATP levels), triple negative breast cancer cells. In kind it is cell-based. Particulars: read-out: DU4475 IC50. Put shortly:
(§1)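 Cells plated overnight, then exposed to compounds over a concentration range for 7 days at 37 °C, 5% CO2. Viability read as ATP luminescence (CellTiter-Glo), normalised to positive and negative control wells; IC50 from Hill-equation non-linear regression of concentration–response curves.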
(In general: Cellular ATP, detected with luciferase, serves as a proxy for viable cell number.)

Test [1] deals with HCT116 (colorectal cancer) cells. Nature of the test: Resazurin-based cell viability assay using colorectal cancer cells. The gist of the method:
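HCT116 cells in DMEM/10% FBS grown 24 h, then exposed to serially diluted compounds for 72 h at 37 °C. Viability read as resazurin (1 mM) fluorescence (ex 535/em 590 nm) after 4–6 h; background-subtracted, normalised to DMSO control, IC50 fitted from percent survival.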

In a further test the test system is MOLP-8. Briefly: In vitro cell viability assay (CellTiter-Glo, ATP levels), multiple myeloma cells. In kind it is cell-based. Particulars: 7-day incubation, CellTiter-Glo, average values, read-out: MOLP-8 IC50. The gist of the method: as §1
Setting [2] is: Homo sapiens, DU-4475, 168 h, 7-day incubation, CellTiter-Glo, average values.
Where [3] appears, read: Homo sapiens, HCT-116, 72 hr incubation.

Structures are written as SMILES. Like-named read-outs stand apart in the source and are kept apart here.

These results are taken from patent publication US11485725B2, “Derivatives of piperlongumine and uses thereof” (Auransa Inc., priority 2017, dated 2022).

In general, IC50 refers to the midpoint of a concentration-inhibition curve. With `COc1cc(/C=C/S(=O)(=O)N2CCC=CC2=O)cc2c1OCCO2` [Compound 76, 1-{[(E)-2-(8-methoxy-2,3-dihydro-1,4-benzodioxin-6-yl)ethenyl]sulfonyl}-5,6-dihydropyridin-2(1H)-one], the IC50 in the test with DU4475 (setting [2]) stood at 1 µM; in test [1] (setting [3]), 1.85 µM; in the test on MOLP-8 (Homo sapiens, MOLP-8, 168 h), 0.563 µM.

Regarding `C/C(=C\C1CCN(C(=O)Nc2ccc(F)cc2)CC1)C(=O)N1CCC=CC1=O` [Compound 73, (E)-N-(4-fluorophenyl)-4-(2-methyl-3-oxo-3-(6-oxo-3,6-dihydropyridin-1(2H)-yl)prop-1-en-1-yl)piperidine-1-carboxamide], the IC50 stood at 1.62 µM in the test with DU4475 (setting [2]); 4.28 µM in test [1] (setting [3]); 0.95 µM in the test with MOLP-8 (Homo sapiens, MOLP-8, 168 h).

On to `Cn1cc(/C=C/S(=O)(=O)N2CCC=CC2=O)cn1` [Compound 75, 1-{[(E)-2-(1-methyl-1H-pyrazol-4-yl)ethenyl]sulfonyl}-5,6-dihydropyridin-2(1H)-one], for which the IC50 in the test on DU4475 (setting [2]) came out at 1.6 µM; in test [1] (setting [3]), 4.62 µM; in the test on MOLP-8 (Homo sapiens, MOLP-8, 168 h) it was 0.86 µM.

For the molecule `O=C1C=CCCCN1C(=O)/C=C/c1ccc2c(n1)OCCO2` [Compound 31, (E)-1-(3-(2,3-dihydro-[1,4]dioxino[2,3-b]pyridin-6-yl)acryloyl)-1,5,6,7-tetrahydroazepin-2-one], the IC50 worked out at 0.56 µM in the test on DU4475 (setting [2]); 1.55 µM in test [1] (setting [3]); 0.27 µM in the test with MOLP-8 (Homo sapiens, MOLP-8, 168 h).

As for `O=C1C=CCCN1C(=O)/C=C/C1CCOCC1` [Compound 34, 1-[(2E)-3-(tetrahydro-2H-pyran-4-yl)prop-2-enoyl]-5,6-dihydropyridin-2(1H)-one], the half-maximal inhibitory concentration (IC50) came out at 1.43 µM with DU4475 (setting [2]); 3.8 µM in test [1] (setting [3]); 0.51 µM with MOLP-8 (Homo sapiens, MOLP-8, 168 h).

For the molecule `O=C1C=CCCN1C(=O)/C=C/c1ccc2c(n1)OCCO2` [Compound 23, (E)-1-(3-(2,3-dihydro-[1,4]dioxino[2,3-b]pyridin-6-yl)acryloyl)-5,6-dihydropyridin-2(1H)-one], the IC50 in the test on DU4475 (7-day incubation, CellTiter-Glo, average values) was 0.5 µM; in test [1] (72 hr incubation, read-out: HCT 116 IC50) it was 3.16 µM; with MOLP-8, 0.7 µM.

On to `O=C1C=CCCN1C(=O)/C=C/C1CCN(CC2CC2)CC1` [Compound 44, (E)-1-(3-(1-(cyclopropylmethyl)piperidin-4-yl)acryloyl)-5,6-dihydropyridin-2(1H)-one], for which the IC50 with DU4475 (setting [2]) is 1.05 µM; in test [1] (setting [3]), 1.35 µM; in the test with MOLP-8 (Homo sapiens, MOLP-8, 168 h) it was 0.49 µM.

Take `COc1cc(/C=C/C(=O)N2CC(C)(C)C=CC2=O)cc2c1OCCO2` [Compound 30, (E)-1-(3-(8-methoxy-2,3-dihydrobenzo[b][1,4]dioxin-6-yl)acryloyl)-5,5-dimethyl-5,6-dihydropyridin-2(1H)-one]: the IC50 in the test on DU4475 (setting [2]) was found to be 5.5 µM; in test [1] (setting [3]), 9.9 µM; in the test with MOLP-8 (Homo sapiens, MOLP-8, 168 h) it was 2.8 µM.

Take `C/C(=C/C1CCNCC1)C(=O)N1CCC=CC1=O` [Compound 87, (Z)-1-(2-methyl-3-(piperidin-4-yl)acryloyl)-5,6-dihydropyridin-2(1H)-one 2,2,2-trifluoroacetate]: the IC50 turned out to be 5.53 µM in the test with DU4475 (setting [2]); 10.1 µM in test [1] (setting [3]); 3.66 µM in the test on MOLP-8 (Homo sapiens, MOLP-8, 168 h).

As for `O=C1C=CCCN1C(=O)/C=C/c1cccnn1` [Compound 27, (E)-1-(3-(pyridazin-3-yl)acryloyl)-5,6-dihydropyridin-2(1H)-one], the IC50 was determined as 0.95 µM with DU4475 (setting [2]); 1.9 µM in test [1] (setting [3]); 0.76 µM with MOLP-8 (Homo sapiens, MOLP-8, 168 h).

`CC(=O)N1CCC(/C=C/C(=O)N2CCC=CC2=O)CC1` [Compound 9, (E)-1-(3-(1-acetylpiperidin-4-yl)acryloyl)-5,6-dihydropyridin-2(1H)-one]: the IC50 in the test with DU4475 (setting [2]) amounted to 0.92 µM; in test [1] (setting [3]), 5.7 µM; in the test on MOLP-8 (Homo sapiens, MOLP-8, 168 h) it was 0.97 µM.

As to `C/C(=C/C1CCN(CC2CC2)CC1)C(=O)N1CCC=CC1=O` [Compound 79, (Z)-1-(3-(1-(cyclopropylmethyl)piperidin-4-yl)-2-methylacryloyl)-5,6-dihydropyridin-2(1H)-one], the IC50 was 1.91 µM in the test on DU4475 (setting [2]); 2.69 µM in test [1] (setting [3]); 1.03 µM in the test with MOLP-8 (Homo sapiens, MOLP-8, 168 h).

With `CC(C)(C)OC(=O)N1CCC(/C=C(/C(=O)N2CCC=CC2=O)c2ccccc2)CC1` [Compound 91, (E)-tert-butyl 4-(3-oxo-3-(2-oxo-5,6-dihydropyridin-1(2H)-yl)-2-phenylprop-1-enyl)piperidine-1-carboxylate], the IC50 with DU4475 (Homo sapiens, DU-4475, 168 h) stood at 4.14 µM; in test [1] (setting [3]), 9.16 µM; with MOLP-8 (Homo sapiens, MOLP-8, 168 h) it was 3.2 µM.

Take `Cc1noc(/C=C/C(=O)N2CCC=CC2=O)n1` [Compound 16, (E)-1-(3-(3-methyl-1,2,4-oxadiazol-5-yl)acryloyl)-5,6-dihydropyridin-2(1H)-one]: the concentration for half-maximal inhibition (IC50) in the test with DU4475 (setting [2]) came to 0.75 µM; in test [1] (setting [3]) it was 0.96 µM; in the test with MOLP-8 (Homo sapiens, MOLP-8, 168 h), 0.66 µM.

As for `CC(C)(C)/C=C/C(=O)N1CCC=CC1=O` [Compound 28, (E)-1-(4,4-dimethylpent-2-enoyl)-5,6-dihydropyridin-2(1H)-one], the IC50 in the test on DU4475 (setting [2]) is 1.38 µM; in test [1] (setting [3]), 3.53 µM; in the test on MOLP-8 (Homo sapiens, MOLP-8, 168 h), 0.49 µM.

For `CC1C=CC(=O)N(C(=O)/C=C/c2ncccn2)C1` (stereo not drawn) [Compound 43, (E)-5-methyl-1-(3-(pyrimidin-2-yl)acryloyl)-5,6-dihydropyridin-2(1H)-one], the IC50 in the test with DU4475 (setting [2]) is 0.53 µM; in test [1] (setting [3]), 1.27 µM; in the test on MOLP-8 (Homo sapiens, MOLP-8, 168 h) it was 0.28 µM.

Regarding `Cn1cc(/C=C/C(=O)N2CCC=CC2=O)cn1` [Compound 56, (E)-1-(3-(1-methyl-1H-pyrazol-4-yl)acryloyl)-5,6-dihydropyridin-2(1H)-one], the half-maximal inhibitory concentration (IC50) turned out to be 1.38 µM with DU4475 (setting [2]); 3.6 µM in test [1] (setting [3]); 0.6 µM with MOLP-8 (Homo sapiens, MOLP-8, 168 h).

With `O=C1C=CCCN1C(=O)C=C1c2ccccc2-c2ccccc21` [Compound 10, 1-(2-(9H-fluoren-9-ylidene)acetyl)-5,6-dihydropyridin-2(1H)-one], the IC50 in the test on DU4475 (setting [2]) came out at 0.95 µM; in test [1] (setting [3]) it was 1.9 µM; in the test on MOLP-8 (Homo sapiens, MOLP-8, 168 h), 2.12 µM.

Turning to `CC1(C)C=CC(=O)N(C(=O)/C=C/c2ncccn2)C1` [Compound 33, (E)-5,5-dimethyl-1-(3-(pyrimidin-2-yl)acryloyl)-5,6-dihydropyridin-2(1H)-one], the IC50 was determined as 1.3 µM in the test with DU4475 (setting [2]); 4.07 µM in test [1] (setting [3]); 0.56 µM in the test on MOLP-8 (Homo sapiens, MOLP-8, 168 h).

For `O=C(Nc1ccc(F)cc1)N1CCC(/C=C/S(=O)(=O)N2CCC=CC2=O)CC1` [Compound 82, (E)-N-(4-fluorophenyl)-4-(2-((6-oxo-3,6-dihydropyridin-1(2H)-yl)sulfonyl)vinyl)piperidine-1-carboxamide], the concentration for half-maximal inhibition (IC50) amounted to 0.8 µM in the test with DU4475 (setting [2]); 2.25 µM in test [1] (setting [3]); 0.36 µM in the test on MOLP-8 (Homo sapiens, MOLP-8, 168 h).

For the molecule `CC(C)(C)CN1CCC(/C=C/C(=O)N2CCC=CC2=O)CC1` [Compound 62, (E)-1-(3-(1-neopentylpiperidin-4-yl)acryloyl)-5,6-dihydropyridin-2(1H)-one], the IC50 in the test with DU4475 (setting [2]) was 0.58 µM; in test [1] (setting [3]), 1.73 µM; in the test with MOLP-8 (Homo sapiens, MOLP-8, 168 h) it was 0.31 µM.

`Cn1cc(/C=C/C(=O)N2CC(C)(C)C=CC2=O)cn1` [Compound 85, (E)-5,5-dimethyl-1-(3-(1-methyl-1H-pyrazol-4-yl)acryloyl)-5,6-dihydropyridin-2(1H)-one]: the 50% inhibitory concentration (IC50) in the test on DU4475 (setting [2]) worked out at 6.79 µM; in test [1] (setting [3]), 31 µM; in the test with MOLP-8 (Homo sapiens, MOLP-8, 168 h), 4.6 µM.

For the molecule `O=C1C=CCCN1S(=O)(=O)/C=C/c1cccnc1` [Compound 11, (E)-1-((2-(pyridin-3-yl)vinyl)sulfonyl)-5,6-dihydropyridin-2(1H)-one], the half-inhibitory concentration (IC50) with DU4475 (setting [2]) stood at 0.58 µM; in test [1] (setting [3]), 1.9 µM; in the test with MOLP-8 (Homo sapiens, MOLP-8, 168 h), 0.5 µM.

Take `O=C1C=CCCN1C(=O)/C=C/c1ncc2c(n1)OCCO2` [Compound 80, (E)-1-(3-(6,7-dihydro-[1,4]dioxino[2,3-d]pyrimidin-2-yl)acryloyl)-5,6-dihydropyridin-2(1H)-one]: the IC50 with DU4475 (setting [2]) is 1.8 µM; in test [1] (setting [3]), 3.21 µM; in the test with MOLP-8 (Homo sapiens, MOLP-8, 168 h), 1.15 µM.

`O=C1C=CCCCN1C(=O)/C=C/C1CCNCC1` [Compound 38, (E)-1-(3-(piperidin-4-yl)acryloyl)-6,7-dihydro-1H-azepin-2(5H)-one]: the concentration for half-maximal inhibition (IC50) in the test on DU4475 (setting [2]) amounted to 1.03 µM; in test [1] (setting [3]), 0.92 µM; in the test on MOLP-8 (Homo sapiens, MOLP-8, 168 h), 0.23 µM.

On to `Cn1cc(/C=C(\C(=O)N2CCC=CC2=O)c2ccccc2)cn1` [Compound 84, (Z)-1-(3-(1-methyl-1H-pyrazol-4-yl)-2-phenylacryloyl)-5,6-dihydropyridin-2(1H)-one], for which the half-inhibitory concentration (IC50) is 1.63 µM in the test with DU4475 (setting [2]); 3.71 µM in test [1] (setting [3]); 1.55 µM in the test with MOLP-8 (Homo sapiens, MOLP-8, 168 h).

As for `O=C(/C=C/c1ncccn1)N1CCC=C(Cl)C1=O` [Compound 35, (E)-3-chloro-1-(3-(pyrimidin-2-yl)acryloyl)-5,6-dihydropyridin-2(1H)-one], the IC50 in the test with DU4475 (setting [2]) came to 0.21 µM; in test [1] (setting [3]) it was 0.38 µM; with MOLP-8 (Homo sapiens, MOLP-8, 168 h), 0.08 µM.

Turning to `O=C1C=CCCCN1C(=O)/C=C/c1ccncc1` [Compound 5, (E)-1-(3-(pyridin-4-yl)acryloyl)-1,5,6,7-tetrahydro-2H-azepin-2-one], the half-inhibitory concentration (IC50) with DU4475 (setting [2]) came out at 0.57 µM; in test [1] (setting [3]) it was 2 µM; in the test with MOLP-8 (Homo sapiens, MOLP-8, 168 h) it was 0.49 µM.

For `O=C1C=CCCCN1S(=O)(=O)/C=C/c1ccccc1` [Compound 14, (E)-1-(styrylsulfonyl)-1,5,6,7-tetrahydro-2H-azepin-2-one], the IC50 was 3.04 µM in the test with DU4475 (setting [2]); 7 µM in test [1] (setting [3]); 3.51 µM in the test on MOLP-8 (Homo sapiens, MOLP-8, 168 h).
